The values that follow come from PMC2630467 (Journal of medicinal chemistry, 2008).

Entries after “also recorded” stand apart in the source; their conditions may differ.

Data set [1] concerns the target T1, CYP2C9 (Homo sapiens, UniProt P11712). Nature of the data set: EPR studies on binding modes with ferric 2C9. As to conditions: ferric 2C9 18.5 μM, substrate 1 mM, 20 K.
The target in data set [2] is T1, CYP2C9. Nature of the data set: UV difference spectroscopy of binding and substrate titrations with purified 2C9. As to conditions: UV difference spectra 350-500 nm.
The target of data set [3] is T1, CYP2C9. Description: Reconstituted purified 2C9 system inhibition. The format is biochemical.

T1 sequence (P11712 whole entry): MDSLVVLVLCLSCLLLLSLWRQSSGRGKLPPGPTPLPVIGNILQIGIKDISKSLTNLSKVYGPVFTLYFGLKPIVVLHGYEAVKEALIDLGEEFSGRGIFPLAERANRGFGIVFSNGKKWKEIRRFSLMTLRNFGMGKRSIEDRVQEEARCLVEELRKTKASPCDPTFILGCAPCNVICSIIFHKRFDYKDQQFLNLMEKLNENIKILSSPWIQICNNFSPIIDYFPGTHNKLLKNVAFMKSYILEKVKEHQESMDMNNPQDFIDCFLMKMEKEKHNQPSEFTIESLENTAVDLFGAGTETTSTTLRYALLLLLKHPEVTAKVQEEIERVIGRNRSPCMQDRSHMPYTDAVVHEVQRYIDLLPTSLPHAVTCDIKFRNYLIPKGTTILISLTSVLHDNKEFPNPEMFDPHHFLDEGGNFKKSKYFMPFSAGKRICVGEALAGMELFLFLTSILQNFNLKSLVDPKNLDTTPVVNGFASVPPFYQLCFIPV

Take `O=C(c1cc(-c2ccncc2)nc2ccccc12)N1CCCCC1` [Compound 1, Piperidin-1-yl(2-(pyridin-4-yl)quinolin-4-yl)methanone]: at CYP2C9 [1], the “Binding Type EPR” value is on record as “Type II”. Moreover, at CYP2C9 [2], the “Binding Type UV” value is given as “typical Type II binding spectra”.
As for `O=C(c1cc(-c2cccnc2)nc2ccccc12)N1CCCCC1` [Compound 2, Piperidin-1-yl(2-(pyridin-3-yl)quinolin-4-yl)methanone], at CYP2C9 [1], the “Binding Type EPR” value was “Type I”. Moreover, the “Binding Type UV” value on CYP2C9 [2] is “mixed Type I and Type II binding”.
Take `O=C(Nc1ccc2ccccc2c1)c1cc(-c2ccncc2)nc2ccccc12` [Compound 7, N-(naphthalen-2-yl)-2-(pyridin-4-yl)quinoline-4-carboxamide]: at CYP2C9 [1], the “Binding Type EPR” value is recorded as “low-spin shift; also recorded: pure Type II”.
With `O=C(Nc1ccc2ccccc2c1)c1cc(-c2cccnc2)nc2ccccc12` [Compound 8, N-(naphthalen-2-yl)-2-(pyridin-3-yl)quinoline-4-carboxamide], at CYP2C9 [1], the “Binding Type EPR” value is given as “Type I”.
On the same count and under the same terms, then `O=C(Nc1ccc2ccccc2c1)c1cc(-c2ccccn2)nc2ccccc12` [Compound 9, N-(naphthalen-2-yl)-2-(pyridin-2-yl)quinoline-4-carboxamide], with “Type I”.
As a reminder, the Ki is the equilibrium dissociation constant of an inhibitor or competing ligand from its target. Low readings indicate higher affinity, high ones lower affinity. In the case of `O=C(Nc1ccccc1)c1cc(-c2ccncc2)nc2ccccc12` [Compound 13, N-phenyl-2-(pyridin-4-yl)quinoline-4-carboxamide], the “Binding Type UV” value at CYP2C9 [2] is listed as “clear Type II binding spectra; also recorded: typical Type II binding spectra”. Further, the Ki on CYP2C9 [3] turned out to be 79.8 nM.
`O=C(Nc1ccccc1)c1cc(-c2cccnc2)nc2ccccc12` [Compound 14, N-phenyl-2-(pyridin-3-yl)quinoline-4-carboxamide]: the “Binding Type UV” value at CYP2C9 [2] was “mixed Type II and Type I binding modes”.
As to `O=C(Nc1ccccc1)c1cc(-c2ccccn2)nc2ccccc12` [Compound 15, N-phenyl-2-(pyridin-2-yl)quinoline-4-carboxamide], the “Binding Type UV” value at CYP2C9 [2] is reported as “does not give a either a Type I or Type II binding spectra”.
As for `Cc1cc(C)c2nc(-c3cccnc3)cc(C(=O)Nc3ccc4ccccc4c3)c2c1` [Compound 17, 6,8-dimethyl-N-(naphthalen-2-yl)-2-(pyridin-3-yl)quinoline-4-carboxamide], the “Binding Type EPR” value at CYP2C9 [1] is on record as “Type I”.
With `Cc1cc(C)c2nc(-c3ccccn3)cc(C(=O)Nc3ccc4ccccc4c3)c2c1` [Compound 18, 6,8-dimethyl-N-(naphthalen-2-yl)-2-(pyridin-2-yl)quinoline-4-carboxamide], the “Binding Type EPR” value on CYP2C9 [1] was “Type I”.
On the same count and under the same terms, then `O=C(Nc1ccc2ccccc2c1)c1cc(-c2ccncc2)nc2ccc(Cl)cc12` [Compound 19, 6-chloro-N-(naphthalen-2-yl)-2-(pyridin-4-yl)quinoline-4-carboxamide], with “low-spin shift; also recorded: mixed mode; also recorded: Type II/Type I”.
